Laboratory results published in patent publication US20110105389A1 (priority 2009, published 2011).
Where two headings read alike, the source gives them in different places.

Experiments:
[1] = target: T1, human ghrelin receptor (GRLN, growth hormone secretagogue receptor, hGHS-R1a) (Homo sapiens, UniProt Q92847); assay: Competitive radioligand binding assay (ghrelin receptor), Method B1
T1 construct: purchased PerkinElmer BioSignal #RBHGHSM, lot#1887; host or cells: HEK-293 cells, stably transfected (membranes)
Outline: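 Filtration competition format: bound radioactivity counted after GF/C harvesting and cold 50 mM Tris-HCl washes. Incubation lasted 30 min at room temperature in Hepes pH 7.4 buffer with Ca2+, Mg2+, EDTA and 0.4% BSA (DMSO ≤0.1% final); values from variable-slope non-linear regression.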

[2] = target: T2, CYP2D6 (Homo sapiens, UniProt P10635); assay: biochemical
[3] = target: T3, CYP3A4 (Homo sapiens, UniProt P08684); assay: biochemical
[4] = target: T4, ghrelin receptor (HEK-GHSR1 stable cells) (Homo sapiens, UniProt Q92847); assay: Ghrelin receptor inverse agonist assay (HTRF IP-one), Method B4; format: cell-based; conditions: inverse agonist at the ghrelin receptor, Method B4
T4 construct: expressed in transfected cells
Outline: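 HEK cells stably expressing GHSR1, seeded at 100 000 cells/well overnight, exposed to compound for 30 min at 37° C. Cells then lysed and IP1 accumulation measured by HTRF (d2 plus anti-IP1 cryptate, 1 h at room temp). Wells lacking d2 served as negative control.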

[5] = Metabolic stability in human liver microsomes, Method B8; format: in vitro ADME; conditions: human liver microsomes 0.8 mg/mL, 5 μM compound, 37° C.
Source text: B8. Metabolic Stability in Human Liver Microsomes
The liver is the primary site for phase I (oxidation) and phase II (glucuronidation) enzymatic activity responsible for xenobiotic metabolism. Human liver microsomes are used as in vitro screen of metabolic activity for candidate drugs. Similar studies can be run with microsomes from other species, such as those used for in vivo studies, to determine any significant species differences in the stability profile. The aim of this study was to measure the broad-spectrum metabolic stability of representative compounds of the invention. The key aspects of the experimental design are summarized below: • Human liver microsomes (mixed pool of 15 male and female donors) were purchased from In Vitro Technologies (Baltimore, Md.). • Microsomes characterized for phase I (Cyp2A6, 2D6, 2E1, 1A2, 2C19, 3A4, 4A) and phase II (glucuronidation) enzymatic activity. • Assays are performed using a final concentration of 0.8 mg/mL of microsomes in 100 mM potassium phosphate buffer (1.5 mM NADPH, 8 mM MgCl2, pH 7.4, 37° C.). • Compounds are tested in duplicate samples at a single concentration of 5 μM (0.05% DMSO). • Test articles are incubated with the microsomes at 37° C.

[6] = target: T3, CYP3A4; assay: Cytochrome P450 inhibition, Method B6 (two substrates); conditions: read-out: IC50 CYP 3A4; Table 4b; midazolam used as substrate
[7] = target: T5, GHS-R1a receptor (HEK293 cells expressing GHS-R1a receptor) (Homo sapiens, UniProt Q92847); assay: Fluorescence functional assay (ghrelin receptor), Method B2, agonist and antagonist mode; format: cell-based; conditions: functional activity as an antagonist at the ghrelin receptor, Methods B2 and B3
T5 construct: host or cells: HEK293
Outline: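 Calcium flux read by ImageTrak epifluorescence in HEK293 cells stably expressing GHS-R1a, loaded 1 h at 37 °C with Calcium-3 dye; buffer HBSS/20 mM Hepes, pH 7.4, with probenecid and BSA. Agonists injected after 10 s baseline, read 50 s more; antagonists 3 min. Sigmoidal fits gave EC50 or IC50.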

[8] = tested on: rat stomach fundus strips; assay: Ex-vivo potency evaluation on the rat stomach fundus (inhibition of ghrelin-induced contractility), Method B10; conditions: EFS
Description: B10. Ex-vivo Potency Evaluation on the Rat Stomach Fundus
Fundus strips (approximately 0.4×1 cm) were cut from the stomach of adult male Wistar rats parallel to the circular muscle fibers. They were placed between two platinum ring electrodes, 1 cm apart (Radnoti, ADlnstruments, USA) in 10 ml tissue baths containing Krebs solution bubbled with 5% CO2 in O2 and maintained at 37° C. Tissues were suspended under 1.5 g resting tension. Changes of tension were measured isometrically with force transducers and recorded with a PowerLab 8/30 data acquisition system (ADlnstruments, USA). Tissues were allowed to equilibrate for 60 min during which time bath solutions were changed every 15 min.
EFS was achieved by applying 0.5 ms pulses, 5 Hz frequency, at a maximally effective voltage of 70 V. EFS was applied for 30 sec at 3 min intervals for a 30 min initial period. This initial period was separated by a […] interval with wash out of the bath solution. Then, a second period of stimulation was started. […] Responses to the agents were measured and expressed as % of the mean of three or four pre-drug responses to EFS. All compounds were dissolved at 1 mM in distilled water or MeOH, as stock solutions.
IC50 values for the inhibition of ghrelin-induced contractility by representative compounds of the invention are presented in Table 7.

[9] = target: T2, CYP2D6; assay: Cytochrome P450 inhibition, Method B6; conditions: read-out: IC50 CYP 2D6; Table 4b; dextromethorphan used as substrate
[10] = Plasma protein binding (equilibrium dialysis), Method B5; format: in vitro ADME; conditions: 60 min at 37° C., typically 10 μM
Source text: B5. Plasma Protein Binding
The pharmacokinetic and pharmacodynamic properties of drugs are largely a function of the reversible binding of drugs to plasma or serum proteins such as albumin and α1-acid glycoprotein. In general, only unbound drug is available for diffusion or transport across cell membranes, and for interaction at the pharmacological target. On the other hand, drugs with low plasma protein binding generally have large volumes of distribution and rapid clearance since only unbound drug is available for glomerular filtration and, in some cases, hepatic clearance. Thus, the extent of plasma protein binding can influence efficacy, distribution and elimination. The ideal range for plasma protein binding is in the range of 87-98% for most drug products.
Protein binding studies were performed using human plasma. Briefly, 96-well microplates were used to incubate various concentrations of the test article for 60 min at 37° C. A concentration of 10 μM was a typical selection to be employed in this study. Bound and unbound fractions are separated by equilibrium dialysis, where the concentration remaining in the unbound fraction is quantified by LC-MS or LC-MS-MS analysis. […].

[11] = Pharmacokinetic analysis (intravenous and oral), Method B9; format: in vivo; conditions: Table 10b; 2 mg/mL intravenous typically employed
Source text: B9. Pharmacokinetic Analysis
The pharmacokinetic (PK) behavior of compounds of the invention and their pharmaceutical compositions can be ascertained by methods well known to those skilled in the art and can be used to investigate the pharmacokinetic parameters (elimination half-life, total plasma clearance, etc.) for intravenous, subcutaneous and oral administration of these substances. (Wilkinson, G. R. “Pharmacokinetics: The Dynamics of Drug Absorption, Distribution, and Elimination” in Goodman & Gilman's The Pharmacological Basis of Therapeutics, Tenth Edition, Hardman, J. G.; Limbird, L. E., Eds., McGraw Hill, Columbus, Ohio, 2001, Chapter 1.) See also U.S. Pat. Nos. 7,476,653; 7,491,695; Intl. Pat. Appl. WO 2008/033328 and U.S. Patent Appl. Publ. 2008/0194672. As an example, compound 1505 has the PK profile below.
The determination of PK parameters for additional representative compounds of the invention is presented in the Examples.
A detailed analysis of the pharmacokinetic profile of representative compounds of the invention was conducted using the procedures outlined in Method B9.
A dose level of 2 mg/mL for intravenous administration and 8 mg/mL for oral administration were typically employed.

[12] = Ghrelin receptor binding activity, Method B1

T2 sequence (P10635 whole entry): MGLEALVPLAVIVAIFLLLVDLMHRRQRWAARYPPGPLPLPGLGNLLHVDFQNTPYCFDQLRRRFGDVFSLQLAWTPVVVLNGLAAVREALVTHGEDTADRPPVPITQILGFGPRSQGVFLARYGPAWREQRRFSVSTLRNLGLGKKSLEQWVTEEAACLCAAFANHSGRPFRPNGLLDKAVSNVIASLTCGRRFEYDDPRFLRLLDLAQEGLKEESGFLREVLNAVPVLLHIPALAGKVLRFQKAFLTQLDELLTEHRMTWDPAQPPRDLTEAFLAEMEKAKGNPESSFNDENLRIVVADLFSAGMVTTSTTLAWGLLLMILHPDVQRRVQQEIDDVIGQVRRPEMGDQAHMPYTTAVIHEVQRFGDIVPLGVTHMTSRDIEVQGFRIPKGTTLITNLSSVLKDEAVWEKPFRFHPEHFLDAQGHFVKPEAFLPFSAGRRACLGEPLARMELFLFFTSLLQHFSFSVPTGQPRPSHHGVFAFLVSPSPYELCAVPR
T3 sequence (P08684 whole entry): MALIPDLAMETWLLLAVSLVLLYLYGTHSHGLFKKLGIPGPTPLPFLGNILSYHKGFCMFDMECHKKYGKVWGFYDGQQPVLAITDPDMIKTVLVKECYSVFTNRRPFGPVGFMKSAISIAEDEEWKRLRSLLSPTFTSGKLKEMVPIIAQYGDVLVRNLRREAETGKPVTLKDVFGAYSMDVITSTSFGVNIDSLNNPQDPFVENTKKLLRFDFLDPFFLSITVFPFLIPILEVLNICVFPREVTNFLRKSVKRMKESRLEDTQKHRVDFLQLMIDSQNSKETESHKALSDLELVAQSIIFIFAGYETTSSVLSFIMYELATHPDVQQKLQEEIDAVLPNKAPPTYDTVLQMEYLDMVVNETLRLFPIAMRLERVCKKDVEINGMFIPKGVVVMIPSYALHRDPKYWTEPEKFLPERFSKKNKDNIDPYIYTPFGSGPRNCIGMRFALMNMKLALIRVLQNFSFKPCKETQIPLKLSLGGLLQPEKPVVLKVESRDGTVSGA
T1 sequence (Q92847 whole entry): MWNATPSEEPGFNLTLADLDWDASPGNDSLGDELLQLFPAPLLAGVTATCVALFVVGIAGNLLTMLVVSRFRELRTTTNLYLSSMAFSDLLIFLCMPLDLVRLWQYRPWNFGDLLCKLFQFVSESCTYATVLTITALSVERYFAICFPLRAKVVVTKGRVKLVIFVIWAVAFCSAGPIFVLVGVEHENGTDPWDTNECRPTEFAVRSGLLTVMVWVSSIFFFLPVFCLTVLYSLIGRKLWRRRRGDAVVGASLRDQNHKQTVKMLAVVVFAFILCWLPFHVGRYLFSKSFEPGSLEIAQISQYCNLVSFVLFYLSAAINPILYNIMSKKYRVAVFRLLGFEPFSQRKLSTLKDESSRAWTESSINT
T4 sequence (Q92847 whole entry): as above
T5 sequence (Q92847 whole entry): as above

| HLM, metabolic stability in human liver microsomes [5] | Antagonist Activity [7] | IC50 [8] | Structure (SMILES) | IC50 [1, 12] | IC50 [6] | other results |
| --- | --- | --- | --- | --- | --- | --- |
| – | – | – | CCC(C)[C@@H]1NCCOc2ccccc2/C=C/CNC(=O)[C@@H](Cc2ccc(C(F)(F)F)cc2)NC(=O)[C@H](C(C)O)N(C)C1=O (stereo partly drawn) [Compound 1327] | – | – | IC50 [1]: 0.01 to 0.1 µM; Ki [1]: 0.001 to 0.01 µM; IC50 [2]: > 25 µM; IC50 [3]: > 17.7 µM |
| 16.6 μL/min/mg protein | A (A <1 nM) | 0.065 µM | CC(C)[C@@H]1NCCOc2cc(F)ccc2CC[C@@H](C)NC(=O)[C@@H](Cc2ccccc2)NC(=O)[C@H](C(C)O)N(C)C1=O (stereo partly drawn) [Compound 1391] | – | – | – |
| – | – | – | CC(C)[C@@H]1NCCOc2ccccc2C#C[C@@H](C)NC(=O)[C@@H](Cc2ccc(F)cc2)NC(=O)[C@H](C(C)O)N(C)C1=O (stereo partly drawn) [Compound 1711] | 0.001 to 0.01 µM | – | IC50 [4]: 0.01 to 0.05 µM; Binding (%), Human Plasma Protein Binding [10]: 97.4% |
| – | B (B = 1-10 nM) | 0.2 µM | CC(C)[C@@H]1NCCOc2ccccc2CC[C@@H](C)NC(=O)[C@@H](Cc2cccc(F)c2)NC(=O)[C@H](C(C)O)N(C)C1=O (stereo partly drawn) [Compound 1364] | – | – | – |
| – | – | – | CC(C)[C@@H]1NCCOc2ccc(F)cc2CC[C@@H](C)NC(=O)[C@@H](Cc2c[nH]c3ccccc23)NC(=O)[C@H](C(C)O)N(C)C1=O (stereo partly drawn) [Compound 1428] | – | 0.8 µM | IC50 [9]: 9.1 µM |
| 40.6 μL/min/mg protein | – | – | CC[C@@H]1C#Cc2ccc(F)cc2OCCN[C@@H](C(C)C)C(=O)N(C)[C@@H](C(C)O)C(=O)N[C@H](Cc2ccccc2)C(=O)N1 (stereo partly drawn) [Compound 1759] | 0.001 to 0.01 µM | – | IC50 [4]: 0.05 to 0.1 µM; Cl [11]: 0.84 ± 0.12 L/h/kg; t1/2 [11]: 1.98 ± 1.68 h |
| – | C (C = 10-100 nM) | – | CCC(C)[C@@H]1NCCOc2ccccc2/C=C/CNC(=O)[C@@H](Cc2cccc(F)c2)NC(=O)[C@H](C(C)O)N(C)C1=O (stereo partly drawn) [Compound 1326] | – | – | IC50 [1]: 0.01 to 0.1 µM; Ki [1]: 0.001 to 0.01 µM; IC50 [2]: > 5 µM; IC50 [3]: 2.2 µM |
| – | – | – | CC(C)[C@@H]1NCCOc2cccc(F)c2CC[C@@H](C)NC(=O)[C@@H](Cc2c[nH]c3ccccc23)NC(=O)[C@H](C(C)O)N(C)C1=O (stereo partly drawn) [Compound 1429] | – | 0.7 µM | IC50 [9]: > 20 µM |
| 26.5 μL/min/mg protein | – | 0.072 µM | CC(C)[C@@H]1NCCOc2ccccc2/C=C/CNC(=O)[C@@H](Cc2ccccc2)NC(=O)[C@H](C(C)O)N(C)C1=O (stereo partly drawn) [Compound 1319] | – | – | IC50 [1]: 0.01 to 0.1 µM; Ki [1]: 0.001 to 0.01 µM; IC50 [2]: 19.1 µM; IC50 [3]: 8 µM |
| 54.2 μL/min/mg protein | A (A <1 nM) | 0.36 µM | CC(C)[C@@H]1NCCOc2ccccc2CC[C@@H](C)NC(=O)[C@@H](Cc2cccc(Cl)c2)NC(=O)[C@H](C(C)O)N(C)C1=O (stereo partly drawn) [Compound 1400] | – | – | – |
| 23.6 μL/min/mg protein | A (A <1 nM) | 0.004 µM | CC(C)[C@@H]1NCCOc2cc(F)ccc2CC[C@@H](C)NC(=O)[C@@H](Cc2cccc(F)c2)NC(=O)[C@H](C(C)O)N(C)C1=O (stereo partly drawn) [Compound 1392] | – | – | – |
| – | – | – | CCC(C)[C@@H]1NCCOc2ccccc2C[C@H](O)CNC(=O)[C@@H](Cc2ccccc2)NC(=O)[C@H](C(C)O)N(C)C1=O (stereo partly drawn) [Compound 1340] | – | – | IC50 [1]: 0.01 to 0.1 µM; Ki [1]: 0.01 to 0.1 µM; IC50 [2]: 13.3 µM; IC50 [3]: 17.2 µM |
| – | C (C = 10-100 nM) | 0.075 µM | CCC(C)[C@@H]1NCCOc2ccccc2/C=C/[C@@H](C)NC(=O)[C@@H](Cc2ccccc2)NC(=O)[C@H](C(C)O)N(C)C1=O (stereo partly drawn) [Compound 1315] | 0.001 to 0.01 µM | – | Ki [1, 12]: 0.001 to 0.01 µM |
| 53 μL/min/mg protein | C (C = 10-100 nM) | – | CC(C)[C@@H]1NCCOc2ccccc2CC[C@@H](C)NC(=O)[C@@H]([C@@H](C)c2ccccc2)NC(=O)[C@H](C(C)O)N(C)C1=O (stereo partly drawn) [Compound 1390] | – | – | IC50 [2]: > 20 µM; IC50 [3]: 6.9 µM |

| Structure (SMILES) | HLM, metabolic stability in human liver microsomes [5] | Antagonist Activity [7] | IC50 [8] | IC50 [1, 12] | IC50 [6] | other results |
| --- | --- | --- | --- | --- | --- | --- |
| CCC(C)C1NCCOc2ccccc2C=CCNC(=O)C(Cc2ccc(Cl)cc2)NC(=O)C(C(C)O)N(C)C1=O (stereo not drawn) [Compound 1730] | 61.9 μL/min/mg protein | – | – | 0.001 to 0.01 µM | 1.6 µM | IC50 [4]: 0.1 to 0.5 µM |
| CCC(C)[C@@H]1NCCOc2ccccc2CC[C@@H](C)NC(=O)[C@@H](Cc2ccccc2)NC(=O)[C@H](C(C)O)N(C)C1=O (stereo partly drawn) [Compound 1358] | – | C (C = 10-100 nM) | – | – | 1.6 µM | IC50 [9]: > 20 µM |
| CC[C@@H]1NCCOc2ccccc2/C=C/CNC(=O)[C@@H](Cc2ccc(Cl)cc2)NC(=O)[C@H](C(C)O)N(C)C1=O (stereo partly drawn) [Compound 1732] | 52.2 μL/min/mg protein | – | – | 0.01 to 0.1 µM | 2.9 µM | IC50 [4]: 0.1 to 0.5 µM |
| CC(O)[C@H]1C(=O)N[C@H](Cc2ccc(Cl)cc2)C(=O)NC/C=C/c2ccccc2OCCN[C@@H](C2(C)CC2)C(=O)N1C (stereo partly drawn) [Compound 1729] | 54.8 μL/min/mg protein | B (B = 1-10 nM) | – | 0.001 to 0.01 µM | 1.9 µM | IC50 [4]: 0.05 to 0.1 µM |
